Read-outs that look alike come from different tables or passages of the source. Where no end group is shown, it is not given here.
Tests used:
[1] = molecular target: LC8 (UniProt P63167); assay: ITC of synthetic peptides binding to LC8; conditions: for Binder?: 500 μM peptide into 25 μM LC8; for binding to LC8 via ITC (in words): strong = Kd fit, weak = heat but not fit (>25 μM)
[2] = molecular target: LC8 (UniProt P63167); conditions: rotavirus A VP4 residues 644–651; ref Martínez-Moreno et al, 2003; cited from earlier work
Text: We scanned Homo sapiens and viral proteomes for potential LC8-binding sequences based upon: (1) their propensity for disorder, (2) their sequence conservation across related species, and (3) the sequence’s similarity to known motifs. This final parameter used a PSSM based on the relative enrichment or depletion of each residue in a potential sequence, weighted by amino acid frequency. Enrichment and depletion PSSMs were populated using sequences that interact with LC8, verified either by mutagenesis or in vitro assays. ITC experiments were performed on 19 synthetic peptides with high-scoring s ...

[3] = Table 1, peptides synthesized from phage display hits, ITC, 25°C, 50 mM sodium phosphate, 50 mM NaCl, 1 mM sodium azide, 5 mM β-mercaptoethanol, pH 7.5
[4] = Table 2, peptides synthesized from favorable sequence comparisons (PSSM), ITC, 25°C, pH 7.5
[5] = Fig 3B, ITC, 25°C, 50 mM NaCl, 50 mM NaPO4, 1 mM NaN3, pH 7.5, single-site model, average of two to three independent experiments, read-out: Kd

Chain of LC8 (P63167 whole entry, the tested form may be a part): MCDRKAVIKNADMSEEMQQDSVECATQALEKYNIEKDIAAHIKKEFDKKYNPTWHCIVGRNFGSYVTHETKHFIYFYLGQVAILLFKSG

| Sequence | Binder? [1, 3] | also measured |
| --- | --- | --- |
| TPTPTPTGTQTPTT [MUC2, synthetic peptide from MUC2, UniProt Q02817] | N |  |
| RSFVLPVESTQDVSSQ [CRYBG1, synthetic peptide from CRYBG1, UniProt Q9Y4K1] | N |  |
| SSRSAFSPLQPNAS [DMRTA2, synthetic peptide from DMRTA2, UniProt Q96SC8] | N |  |
| STQTPSPAPASDMP [BSN-shift] | N | binding to LC8 via ITC (in words) ([1]; ITC, 25°C, pH 7.5): failed to demonstrate even weak binding to LC8 |
| KSVAENGDTDTQTSMF [ZZZ3, synthetic peptide from ZZZ3, UniProt Q8IYH5] |  | Binder? [1, 4]: N |
| YHHRILEAKSIQTSPT [FMN2, synthetic peptide from FMN2, UniProt Q9NZ56] |  | Binder? [1, 4]: N |
| AKESCNMETQTSST [OFD1, synthetic peptide from OFD1, UniProt O75665] | Y |  |
| YELMASLDQPTQTVVM [EIF3C, synthetic peptide from EIF3C, UniProt Q99613] |  | Binder? [1, 4]: N |
| YGQIAPENGTQTPSP [ITGAX, synthetic peptide from ITGAX, UniProt P20702] |  | Binder? [1, 4]: N |
| DFTPAFADFGRQTPGG [EIF4G3, synthetic peptide from EIF4G3, UniProt O43432] |  | Binder? [1, 4]: N |
| ISRMTQTP [RAVL, synthesized to validate previous data] |  | Kd [1, 5]: 8 µM |
| NKVFAKLHHNTQTFQA [CCL25, synthetic peptide from CCL25, UniProt O15444] |  | Binder? [1, 4]: N |
| LPRKVDTAAQTNSR [IRS1, synthetic peptide from IRS1, UniProt P35568] | N |  |
| PRATAEFSTQTPSP [BSN^II] |  | Kd ([1]; pH 7.5): 3.8 µM |
| DDPMYSSQTQTYGD [KCNQ2, synthetic peptide from KCNQ2, UniProt O43526] | N |  |
| TTLPVLTSTATKST [MUC5B-1, synthetic peptide from MUC5B, UniProt Q9HC84, residues 3,049-3,062] | N |  |
| EGYRGTANTTTAAYLA [MSTL1, synthetic peptide from MSTL1, UniProt Q2TV78] | N |  |
| MDDIFTQCREGN [ILK, synthetic peptide from ILK, UniProt Q13418] |  | Binder? [1, 4]: N |
| IDMSTQIG [rotavirus A VP4 residue position 644–651, site predicted and tested in a previous study] |  | binding to LC8 (in words) [2]: did not bind LC8 |
| RGDGSDVSSQTPQT [ANKIB1, synthetic peptide from ANKIB1, UniProt Q9P2G1] | N |  |
| GQGAALTTATQTTHLE [GP1BA, synthetic peptide from GP1BA, UniProt P07359] | Weak^a (Weak binders are those with affinities >25 μM) |  |
| AQPKQKLDTSIQTEYP [MT/HEL (TMV), synthetic peptide from MT/HEL (TMV), UniProt P03586] |  | Binder? [1, 4]: N |
| SKTQQTFGSQTECT [TOGARAM1, synthetic peptide from TOGARAM1, UniProt Q9Y4F4] | Weak^a (Weak binders are those with affinities >25 μM) | binding to LC8 via ITC (in words) ([1]; ITC, 25°C, pH 7.5): weak binders |
| ESGDGNTGTQTNGL [POU2F1, synthetic peptide from POU2F1, UniProt P14859] | N |  |
| NQSFLRTPIQRTPH [SAV1, synthetic peptide from SAV1, UniProt Q9H4B6] | N |  |
| KITFTKPSTQTTNT [EMSY, synthetic peptide from EMSY, UniProt Q7Z589] | N |  |
| VAQGTQTP [BSN^III, synthesized to validate previous data] |  | Kd [1, 5]: 5.3 µM |

| Sequence | Binder? [1, 3] | also measured |
| --- | --- | --- |
| KHSGRQLTLQHHMG [CUL3, synthetic peptide from CUL3, UniProt Q13618] | N |  |
| SFRHPGYSTQTHVN [KLK7, synthetic peptide from KLK7, UniProt P49862] | N |  |
| DERLMCTGSQTFDD [EFL1, synthetic peptide from EFL1, UniProt Q7Z2Z2] | N |  |
| SMATPSSSTQTSGT [MUC5B-3, synthetic peptide from MUC5B, UniProt Q9HC84, residues 2,673-2,686] | N |  |
| SSTEVQVE [OTOF, peptide from otoferlin, UniProt Q9HC10, predicted by LC8Pred] |  | binding to LC8 via ITC (in words) ([1]; ITC, 25°C, pH 7.5): bound to LC8 |
| DDNHWTRSTQTTRE [MUC4] | Y |  |
| TLQQPLELTASQLPAG [OTOG, synthetic peptide from OTOG, UniProt Q6ZRI0] | N |  |
| RAAALPEETRSSRR [ZNF469, synthetic peptide from ZNF469, UniProt Q96JG9] | N |  |
| KDGDTQTD [HTATSF1, peptide from HIV Tat-specific factor 1, UniProt O43719, predicted by LC8Pred] |  | Kd ([1]; ITC, 25°C, pH 7.5, single-site model, read-out: Kd): 10 µM; binding to LC8 via ITC (in words) ([1]; ITC, 25°C, pH 7.5): “strong” binder |
| TQDDYFKDKRVHHFRRS [DAZL] | N | Binder? [1, 4]: N |
| TEAKDQCSTQTDFN [EPAS1, synthetic peptide from EPAS1, UniProt Q99814] | N |  |
| YGPDGEETETQTCPP [PRSS36, synthetic peptide from PRSS36, UniProt Q5K4E3] |  | Binder? [1, 4]: N |
| PLQATISKSQTNPV [UBN2, synthetic peptide from UBN2, UniProt Q6ZU65] | N |  |
| CLKETLQITQTEVQ [NFYC, synthetic peptide from NFYC, UniProt Q13952] | N |  |
| DDSGGNATTQTTSD [ROR1, synthetic peptide from ROR1, UniProt Q01973] | Weak^a (Weak binders are those with affinities >25 μM) |  |
| TLVSTASGTQTVFP [SH3RF2, synthetic peptide from SH3RF2, UniProt Q8TEC5] | N |  |
| YKIEIPTQCPSCGSK [DNLJ2 (phage T5), synthetic peptide from DNLJ2 (phage T5), UniProt Q5DMI6] |  | Binder? [1, 4]: N |
| KPFMLDEEGDTQTEET [EIF2S2, synthetic peptide from EIF2S2, UniProt P20042] |  | Binder? [1, 4]: N |
| SPSPTGLPTQTPGF [ARAP3, synthetic peptide from ARAP3, UniProt Q8WWN8] | Weak^a (Weak binders are those with affinities >25 μM) |  |
| AASLIQKMLQTDPTAR [PLK1, synthetic peptide from PLK1, UniProt P53350] | N |  |
| ITSYNSQGTQLTVE [KY, synthetic peptide from KY, UniProt Q8NBH2] | N |  |
| RTSETNTP [NIN, peptide from ninein, UniProt Q8N4C6, predicted by LC8Pred] |  | binding to LC8 via ITC (in words) ([1]; ITC, 25°C, pH 7.5): bound to LC8 |
| RNSQTQTD [VP35(EBV), synthesized to validate previous data] |  | Kd [1, 5]: 0.8 µM |
| KTLTFSGSSQTVTP [QSER1, synthetic peptide from QSER1, UniProt Q2KHR3] | N | binding to LC8 via ITC (in words) ([1]; ITC, 25°C, pH 7.5): nonbinders |
| LQETLTTSSQANLS [PPP2R3A, synthetic peptide from PPP2R3A, UniProt Q06190] | N |  |
| DDHSGNAQVTQTKFD [DDX1, synthetic peptide from DDX1, UniProt Q92499] | N |  |
